This note sets out measurements from patent US20260297022A1, “PROCESS FOR THE PREPARATION OF SULFAMOYLBENZOIC ACID DERIVATIVES” (IAMA THERAPEUTICS S.R.L., priority 2023, published 2026).

Values after ≈ are worked out from the molar mass of the structure shown. Where only a bound is given, the exact number is not on record here.

The first series can be described thus: Aqueous kinetic solubility from a solution of 10 mM DMSO in phosphate buffered saline (PBS) at pH 7.4. The series is classed as physicochemical. The note with it: PBS pH 7.4, 25° C., target concentration 250 μM, 2.5% DMSO, UV quantification at 215 nm, read-out: Kinetic sol. PBS pH 7.4. As for the experimental part: Aqueous kinetic solubility of derivative compounds of the benzoic acid starting from a solution of 10 mM DMSO in phosphate buffered saline (PBS) at pH 7.4
Aliquots of 30 μL of stock solution of the test compound in 10 mM DMSO were incubated in phosphate buffered saline (PBS) at pH 7.4 at 25° C. for 24 hours. After centrifugation, the compound dissolved in the supernatant was quantified by […].
The target concentration was 250 μM with a final concentration of 2.5% DMSO. Aqueous kinetic solubility was determined by UV quantification at 215 nm. The kinetic solubility was then calculated by dividing the peak area of the supernatant by the peak area of the reference and multiplying by the reference concentration (μM) and the dilution factor (1.25).
Take `CN(C)S(=O)(=O)c1cc(C(=O)O)ccc1NCCCCCCCC(F)(F)F` [Compound 1, 3-(dimethylsulfamoyl)-4-(8,8,8-trifluorooctylamino)benzoic acid]: the solubility kinetic at 24 h is listed as greater than 250 µM.
Still for that read-out and setting: under `CCCCCCNc1ccc(C(=O)O)cc1S(N)(=O)=O` [Compound 2] stands 238 µM (≈ 71.5 µg/mL); under `CCCCCCCCNc1ccc(C(=O)O)cc1S(N)(=O)=O` [Compound 3], greater than 250 µM; under `CCCCCCNc1ccc(C(=O)O)cc1S(=O)(=O)NC` [Compound 4], 247 µM (≈ 77.7 µg/mL).
Consider `CCCCCCNc1ccc(C(=O)O)cc1S(=O)(=O)N(C)C` [Compound 5], for which the solubility kinetic at 24 h was determined as 243 µM (≈ 79.8 µg/mL).
On the same count and under the same terms, the value for `CN(C)S(=O)(=O)c1cc(C(=O)O)ccc1NCCC(C)(C)C` [Compound 6] was greater than 250 µM; that for `CN(C)S(=O)(=O)c1cc(C(=O)O)ccc1NCCCC(F)(F)F` [Compound 7] was 245 µM (≈ 86.8 µg/mL).
Regarding `CN(C)S(=O)(=O)c1cc(C(=O)O)ccc1NCCCCCC(F)(F)F` [Compound 8], the solubility kinetic at 24 h was determined as 249 µM (≈ 95.2 µg/mL).
Still for that read-out and setting: the value for `COCCNc1ccc(C(=O)O)cc1S(=O)(=O)N(C)C` [Compound 9] was 237 µM (≈ 71.7 µg/mL); that for `COCCCCNc1ccc(C(=O)O)cc1S(=O)(=O)N(C)C` [Compound 10] was 247 µM (≈ 81.6 µg/mL); that for `COCCCCCCNc1ccc(C(=O)O)cc1S(=O)(=O)N(C)C` [Compound 11] was greater than 250 µM.
The same measure, in the same setting: the value for `O=C(O)c1ccc(NCCCCCCCC(F)(F)F)c(S(=O)(=O)NC2CCCC2)c1` [Compound 12] was 223 µM (≈ 100 µg/mL); that for `O=C(O)c1ccc(NCCCCCCCC(F)(F)F)c(S(=O)(=O)N2CCOCC2)c1` [Compound 13] was 244 µM (≈ 110 µg/mL).
Same read-out and setting: under `O=C(O)c1ccc(NCCCCCCCC(F)(F)F)c(S(=O)(=O)NC2CCOCC2)c1` [Compound 14] stands 244 µM (≈ 114 µg/mL); under `CN(C)S(=O)(=O)c1cc(C(=O)O)c(Cl)cc1NCCCCCCCC(F)(F)F` [Compound 16], 241 µM (≈ 107 µg/mL).
Turning to `CNS(=O)(=O)c1cc(C(=O)O)ccc1NCCCCCCCC(F)(F)F` [Compound 18], the solubility kinetic at 24 h is recorded as 242 µM (≈ 95.9 µg/mL).
Regarding `COc1cc(NCCCCCCCC(F)(F)F)c(S(=O)(=O)N(C)C)cc1C(=O)O` [Compound 20], the solubility kinetic at 24 h turned out to be 188 µM (≈ 82.8 µg/mL).

Staying with this series, now noted: aqueous buffer, PBS pH 7.4, 25° C., target concentration 250 μM, 2.5% DMSO, UV quantification at 215 nm, read-out: Kinetic sol. PBS pH 7.4.
In the case of `CN(C)S(=O)(=O)c1cc(C(=O)O)ccc1N1CCN(CCCCC(F)(F)F)CC1` [Compound 15], the solubility kinetic at 24 h is greater than 250 µM.
On to `C=CCCCCCNc1ccc(C(=O)O)cc1S(=O)(=O)N(C)C` [Compound 17], for which the solubility kinetic at 24 h is greater than 250 µM.
As to `NS(=O)(=O)c1cc(C(=O)O)c(O)cc1NCCCCCCCC(F)(F)F` [Compound 19], the solubility kinetic at 24 h is greater than 250 µM.
